Laboratory results: patent publication US7244557B2, “Method of screening modulators of Nod1 signaling” (Regents of the University of Michigan, priority 2003, dated 2007)

What was measured:
Format in all cases: cell-based
[1] = molecular target: T1, NOD1 (Homo sapiens, UniProt Q9Y239); assay: NF-κB-dependent luciferase reporter assay, HEK293T cells expressing NOD1
T1 construct: expressed in transfected cells; host or cells: HEK293T
T1 sequence (Q9Y239 1-953): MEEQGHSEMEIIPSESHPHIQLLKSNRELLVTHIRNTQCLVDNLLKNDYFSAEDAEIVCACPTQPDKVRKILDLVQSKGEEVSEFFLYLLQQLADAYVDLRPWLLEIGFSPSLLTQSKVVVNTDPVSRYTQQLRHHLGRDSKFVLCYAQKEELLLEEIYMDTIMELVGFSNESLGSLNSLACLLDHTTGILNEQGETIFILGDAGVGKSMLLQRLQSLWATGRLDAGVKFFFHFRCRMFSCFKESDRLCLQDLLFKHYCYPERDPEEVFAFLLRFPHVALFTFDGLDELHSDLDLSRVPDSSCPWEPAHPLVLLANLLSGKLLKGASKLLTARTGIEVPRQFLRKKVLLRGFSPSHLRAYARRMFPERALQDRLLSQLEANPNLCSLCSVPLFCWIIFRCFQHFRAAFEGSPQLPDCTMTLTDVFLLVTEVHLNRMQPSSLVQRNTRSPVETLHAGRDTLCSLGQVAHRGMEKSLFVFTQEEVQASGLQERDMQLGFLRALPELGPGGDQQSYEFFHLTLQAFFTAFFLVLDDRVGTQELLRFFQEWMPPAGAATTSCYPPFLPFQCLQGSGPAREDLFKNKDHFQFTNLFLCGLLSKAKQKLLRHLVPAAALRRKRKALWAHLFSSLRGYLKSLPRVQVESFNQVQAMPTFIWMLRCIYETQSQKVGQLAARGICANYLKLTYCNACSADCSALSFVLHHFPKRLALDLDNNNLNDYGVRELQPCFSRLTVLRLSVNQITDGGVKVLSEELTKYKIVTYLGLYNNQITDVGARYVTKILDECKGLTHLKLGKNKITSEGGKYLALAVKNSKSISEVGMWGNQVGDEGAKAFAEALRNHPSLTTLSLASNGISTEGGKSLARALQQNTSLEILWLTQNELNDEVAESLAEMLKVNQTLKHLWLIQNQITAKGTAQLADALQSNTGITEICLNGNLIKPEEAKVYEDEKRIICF
Excerpt: Reagents. LPS from S. typhimurium, intact and alkaline-detoxified LPS from E. coli O55:B5 as well as purified lipid A preparations of E. coli F583, MDP, DAP and dsRNA were obtained from Sigma-Aldrich (St. Louis, Mo.). PGN from S. aureus was from Fluka-Chemie (Buchs, Germany). Palmitoyl-Cys ((RS)-2,3-di(palmitoyloxy)-propyl)-Ala-Gly) (sBLP), was obtained from Bachem (Torrance, Calif.). The tetrameric form of the disaccharide dipeptide was described previously (Inohara et al., J. Biol. Chem. 278:5509 [2003]). iE-DAP and iQ-DAP, M3P and M4P were synthesized as described (Kitaura et al., J. Med. Chem. 25:335 [1982]) with small modification. Purification of PGN from B. subtilis 168 and C. flaccumfaciens with hydrolases, Cellosyl or recombinant AtlE (amidase domain) and the fractionation and purification of reduced B. subtilis PGN digested with Cellosyl were performed as previously described (Heilman et al., Mol. Microbiol. 24:1013 [1997]; Atrih et al., J. Bact. 181:3956 [1999]). Removal of proteins and reduction of LPS fraction. E. coli O55:B5 LPS (Sigma) was treated with proteinase K at 37° C. for 12 hr to digest contaminating proteins. To eliminate lipoproteins, LPS was subjected to modified phenol extraction with deoxycholate-containing phenol as described (Hirschfeld et al., J. Immunol. 165:618 [2000]). For reduction of carboxyl group in the LPS, the LPS was treated with 1-ethyl-3-(3-dimethylaminopropyl) carbodiimide and then reduced with NaBH4 as described (Taylor et al., Biochemistry 11:1383 [1972]). Preparation of E. coli extract. E. coli K-12 mutants were all based on the SØ864 genetic background (lacZ trp upp relA rpsL) (Neuhard and Thomassen, J. Bacteriol. 126:999). SØ874 carries a large chromosomal deletion removing the gene clusters for the biosynthesis of CA capsule and O-antigen. CLM5 is a derivative of SØ874 with a transposon insertion in the wecC gene that blocks the synthesis of ECA (Marolda et al., J. Bacteriol. 177:5539[1995]). FAM5 is a derivative of SØ874 carrying a deletion that eliminates the incorporation of heptose in the LPS core. Extracts were prepared from all of these E. coli K-12 strains and also from another E. coli K-12 strain, LCD27 YA21-6 (Obtained from Dr. Arisaka, Tokyo Institute of Technology). Bacteria were cultured overnight at 37° C. in Luria broth, killed by treatment with acetone followed by vacuum drying and finally resuspended in 10 mM HEPES. The extract was treated with 1M NaOH at 55° C. for 12 hr and neutralized with 1M HEPES (pH 7.4). The soluble fraction after centrifugation and filtration with 0.22 μm filter was applied to SUPEROSE 12 gel filtration column chromatography. Partial purification of NOD1-stimulatory molecules from E. coli and composition analyses. The amino acid composition of E. coli O55:B5 LPS was determined using AccQ·Tag amino acid analysis system (Waters, Milford, Mass.) after hydrolysis at 110° C. for 24 hr. For carbohydrate analysis, E coli K-12 YA21-6 (Ref 26) cultured overnight at 37° C. in L-broth were washed with TBS twice and incubated with TBS containing 1 mglml DNase I, RNase I and lysozyme for 37° C. for 2 hr. Acetone was added to the extracts at 50% final concentration and the insoluble fractions were washed with an excess of 75% and 100% acetone. After vacuum drying, the acetone extract was solublized with 1 M NaOH and incubated at 60° C. for 24 hr. The pH was adjusted to pH 5.0 with acetic acid and the soluble fraction was passed through SUPEROSE gel filtration column. SUPEROSE fractions with NOD1-stimulatory activity were diluted with 10 mM Tris-HCl (pH 8.8) and subjected to UnoQ column chromatography. The fractions were eluted with a linear gradient of 0–300 mM NaCl. The positive fractions were dialyzed against water and dried under vacuum. The monosaccharide composition of the fractions after TFA/methanol degradation was determined as previously described (Forsberg et al., J. Biol. Chem. 273:2747[1998]). Transfection and NF-κB Activation Assay. […]

[2] = molecular target: T2, NOD2 (Homo sapiens, UniProt Q9HC29); assay: NF-κB-dependent luciferase reporter assay, HEK293T cells expressing NOD2
T2 construct: expressed in transfected cells; host or cells: HEK293T
T2 sequence (Q9HC29 whole entry): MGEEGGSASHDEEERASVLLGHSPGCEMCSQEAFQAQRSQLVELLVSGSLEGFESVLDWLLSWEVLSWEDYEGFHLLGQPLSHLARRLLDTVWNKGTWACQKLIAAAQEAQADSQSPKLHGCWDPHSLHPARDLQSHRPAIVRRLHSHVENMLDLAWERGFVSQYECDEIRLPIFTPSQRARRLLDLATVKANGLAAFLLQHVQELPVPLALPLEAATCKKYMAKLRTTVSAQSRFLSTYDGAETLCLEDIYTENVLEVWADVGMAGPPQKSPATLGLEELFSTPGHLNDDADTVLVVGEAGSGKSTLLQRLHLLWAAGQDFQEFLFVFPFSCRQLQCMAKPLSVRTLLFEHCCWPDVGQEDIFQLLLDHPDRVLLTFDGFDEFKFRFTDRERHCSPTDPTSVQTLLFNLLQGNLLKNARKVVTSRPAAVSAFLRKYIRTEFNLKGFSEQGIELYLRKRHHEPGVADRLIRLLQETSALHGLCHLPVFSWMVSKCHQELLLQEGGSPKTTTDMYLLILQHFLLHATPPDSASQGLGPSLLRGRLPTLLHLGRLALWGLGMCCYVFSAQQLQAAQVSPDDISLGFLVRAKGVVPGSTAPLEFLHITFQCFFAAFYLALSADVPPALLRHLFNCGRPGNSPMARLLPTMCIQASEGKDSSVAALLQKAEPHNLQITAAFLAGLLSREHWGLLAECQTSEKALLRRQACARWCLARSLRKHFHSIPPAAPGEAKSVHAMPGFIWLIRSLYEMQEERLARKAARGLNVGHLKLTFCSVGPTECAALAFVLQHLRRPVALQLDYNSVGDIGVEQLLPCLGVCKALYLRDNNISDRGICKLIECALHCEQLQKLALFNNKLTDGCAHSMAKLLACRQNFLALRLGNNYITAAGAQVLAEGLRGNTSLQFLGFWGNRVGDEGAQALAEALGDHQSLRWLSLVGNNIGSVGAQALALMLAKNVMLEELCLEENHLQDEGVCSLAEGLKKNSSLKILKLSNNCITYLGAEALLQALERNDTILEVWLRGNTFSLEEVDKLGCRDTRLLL
Excerpt: (§1) Reagents. LPS from S. typhimurium, intact and alkaline-detoxified LPS from E. coli O55:B5 as well as purified lipid A preparations of E. coli F583, MDP, DAP and dsRNA were obtained from Sigma-Aldrich (St. Louis, Mo.). PGN from S. aureus was from Fluka-Chemie (Buchs, Germany). Palmitoyl-Cys ((RS)-2,3-di(palmitoyloxy)-propyl)-Ala-Gly) (sBLP), was obtained from Bachem (Torrance, Calif.). The tetrameric form of the disaccharide dipeptide was described previously (Inohara et al., J. Biol. Chem. 278:5509 [2003]). iE-DAP and iQ-DAP, M3P and M4P were synthesized as described (Kitaura et al., J. Med. Chem. 25:335 [1982]) with small modification. Purification of PGN from B. subtilis 168 and C. flaccumfaciens with hydrolases, Cellosyl or recombinant AtlE (amidase domain) and the fractionation and purification of reduced B. subtilis PGN digested with Cellosyl were performed as previously described (Heilman et al., Mol. Microbiol. 24:1013 [1997]; Atrih et al., J. Bact. 181:3956 [1999]). Removal of proteins and reduction of LPS fraction. […] The amino acid composition of E. coli O55:B5 LPS was determined using AccQ·Tag amino acid analysis system (Waters, Milford, Mass.) after hydrolysis at 110° C. for 24 hr. […] The monosaccharide composition of the fractions after TFA/methanol degradation was determined as previously described (Forsberg et al., J. Biol. Chem. 273:2747[1998]). […]

[3] = molecular target: T3, TLR4/MD-2 (Homo sapiens, UniProt O00206+Q9Y6Y9); assay: NF-κB-dependent luciferase reporter assay, HEK293T cells expressing TLR4 with co-factor MD-2
T3 construct: expressed in transfected cells; host or cells: HEK293T
T3 sequence (O00206 24-839, species assumed): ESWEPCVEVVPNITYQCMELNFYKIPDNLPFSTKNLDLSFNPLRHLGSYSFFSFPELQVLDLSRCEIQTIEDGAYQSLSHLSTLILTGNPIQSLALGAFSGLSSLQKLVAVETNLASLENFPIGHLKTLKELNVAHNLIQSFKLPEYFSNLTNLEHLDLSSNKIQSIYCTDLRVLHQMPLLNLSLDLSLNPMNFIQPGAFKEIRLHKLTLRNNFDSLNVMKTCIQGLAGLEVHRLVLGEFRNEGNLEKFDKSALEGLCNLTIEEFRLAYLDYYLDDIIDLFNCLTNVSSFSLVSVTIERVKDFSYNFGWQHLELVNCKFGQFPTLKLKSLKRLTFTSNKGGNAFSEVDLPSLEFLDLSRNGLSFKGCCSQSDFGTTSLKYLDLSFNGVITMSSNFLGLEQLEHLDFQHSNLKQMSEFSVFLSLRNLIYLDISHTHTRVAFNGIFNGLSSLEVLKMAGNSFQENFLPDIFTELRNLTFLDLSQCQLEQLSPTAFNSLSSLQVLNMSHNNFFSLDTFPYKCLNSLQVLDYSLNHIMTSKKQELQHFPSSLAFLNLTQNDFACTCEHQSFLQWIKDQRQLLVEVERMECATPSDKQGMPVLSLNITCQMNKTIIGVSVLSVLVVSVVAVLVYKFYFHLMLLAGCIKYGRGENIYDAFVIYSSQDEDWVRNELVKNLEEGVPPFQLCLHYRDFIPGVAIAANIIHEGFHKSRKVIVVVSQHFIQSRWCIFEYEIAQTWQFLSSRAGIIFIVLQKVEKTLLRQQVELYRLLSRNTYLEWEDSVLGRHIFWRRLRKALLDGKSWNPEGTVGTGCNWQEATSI
T3 sequence (Q9Y6Y9 19-160, species assumed): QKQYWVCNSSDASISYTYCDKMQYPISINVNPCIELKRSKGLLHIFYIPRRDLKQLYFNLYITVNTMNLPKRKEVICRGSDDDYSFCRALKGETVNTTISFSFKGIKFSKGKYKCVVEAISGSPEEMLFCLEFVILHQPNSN
Excerpt: as §1

Row | Molecule | NOD1-dependent NF-κB activation (NOD1 stimulation) [1] | NOD2-dependent NF-κB activation [2] | TLR4/MD-2-dependent NF-κB activation [3]
1 | lipid A | not NOD1 and NOD2 | not NOD1 and NOD2 | responded
2 | MurNAc-L-Ala-γ-D-Gln-L-Lys [M3P] | failed to stimulate NOD1 | – | –
3 | MurNAc-L-Ala-γ-D-Gln-L-Lys-D-Ala [M4P] | failed to stimulate NOD1 | – | –
4 | N-acetylglucosamine(GlcNAc)-N-acetyl-Muramicitol-L-Ala-γ-D-Glu-meso-DAP [GM3p] | stimulated NOD1 in a dose-dependent manner | – | –
5 | N[C@H](CCC[C@H](N)C(=O)O)C(=O)O [DAP, diaminopimelic acid] | unable to stimulate NOD1 | – | –
